In US20260125356A1, “TREATMENT OF LEISHMANIASIS” (THE UNIVERSITY OF DURHAM, priority 2022, published 2026):
≈ marks a conversion by molar mass, not a printed value. Where two headings read alike, the source gives them in different places.

Key:
[1] = tested on: L. donovani promastigotes; test: L. donovani promastigote dose response assay (resazurin); format: cell-based; conditions: promastigotes, 72 hrs at 26° C., resazurin, read-out: EC50 (L. don)/μM
L. major promastigotes = test: L. major promastigote dose response assay (alamarBlue/resazurin); format: cell-based; conditions: 44 hrs + 4 hrs alamarBlue/resazurin, 26° C.
Method: (§1) Using a standard alamarBlue™ assay, activity and selectivity were assessed using L. major promastigotes and HepG2 cells, respectively.
All parasite and human cell cultures were grown and manipulated following biosafety level 2 instructions under sterile conditions. L. major FV1, L. amazonensis (MHOM/Br/75/JOSEFA), L. donovani BOB (derived from MHOM/SD/62/1S-CL2D), T. brucei (90-13, 427 strain) and T. cruzi (Dm28c) were used throughout.
All steps were carried out under sterile conditions. Frozen stocks of the relevant Leishmania promastigote species were thawed rapidly and added to Schneider's media. Promastigotes were grown at 26° C. in Nunc EasYFlask 25 cm^2 Nunclon Delta Surface (ThermoScientific) and frozen stocks were prepared on low passage cultures (p2-4) by pelleting the cells by centrifugation and resuspending in Schneider's media with 10% DMSO. The cultures were aliquoted into cryovials (Starlab) and cooled slowly to −150° C. for long term storage.
All steps were carried out under sterile conditions. […] Cycloheximide or amphotericin B were used as positive controls and 2% DMSO was used as a negative control. alamarBlue® (ThermoFisher scientific) or resazurin solution was added to each well and incubated for a further 4 hrs at 26° C. Cell-viability was determined using a BioTek™ FLx800 microplate reader with Gen5® 1.08 data analysis software (BioTek) by monitoring fluorescence emission (λex 560/λem 590 nm). Dose response curves were fitted using sigmoidal regression analysis (GraphPad Prism 8 software) and used to calculate EC50 values.

[2] = tested on: L. amazonensis promastigotes; test: L. amazonensis promastigote dose response assay (alamarBlue/resazurin); format: cell-based; conditions: 44 hrs + 4 hrs alamarBlue/resazurin, 26° C., read-out: EC50 (L. amaz)/μM
Kinetic solubility = conditions: for solubility at 2 h: kinetic from dmso stock
Excerpt: All chemicals and solvents were sourced from commercial suppliers. Buffers were made up using purified water from a MilliQ® water purification system. Biorelevant buffers (FESSIF, FASSIF and FASSGF) were purchased from Biorelevant and made up according to manufacturer's instructions. 15% FBS (heat inactivated, South American origin, ThermoFisher scientific) in PBS (Fisher Scientific) was filter sterilised (0.22 μm Fisherbrand™ Sterile PES Syringe Filter, Fisher Scientific) before use. Sodium taurocholate was purchased from Merck.
λmax was determined for each compound from the UV-Vis absorption spectrum of a 200 LIM compound solution in buffer of interest using a Varian Cary® 100 UV-Vis Spectrophotometer. A calibration curve of λmax VS concentration was obtained by serial dilution of compound from 200 μM in the buffer of interest, correcting for background buffer absorption. For each sample, a DMSO solution of compound was incubated in buffer of interest (<5% DMSO) for 2 hrs at RT. The solution was filtered (0.22 μm Fisherbrand™ Sterile PES Syringe Filter, Fisher Scientific) or centrifuged (14,500 rpm, 10 min) to remove undissolved debris and the supernatant was removed and diluted as required. The corrected UV absorption of the supernatant at Amax Was measured using a Varian Cary® 100 UV-Vis Spectrophotometer and compared to the calibration curve to determine compound solubility.

HepG2 cells = test: HepG2 cytotoxicity dose response assay; conditions: read-out: CC50 (HepG2)/μM, 44 hrs + 4 hrs alamarBlue/resazurin
Method: as §1
All steps were carried out under sterile conditions. HepG2 cells were thawed rapidly into DMEM. Cells were grown at 37° C., 5% CO2 for >5 days in T-75 CytoOne® Flask, TC-Treated, Vented flasks (Starlab) in a Sanyo MCO-18M incubator. […] The trypsin was deactivated by addition of DMEM. The cells were homogenised and 5 mL of cell culture was added to 20 mL fresh DMEM. Cells were split 1:4 every 3 days. Frozen stocks were prepared in the same way as the passage, but resuspended into DMEM with 10% DMSO, aliquoted into cryovials (Starlab) and cooled slowly to −150° C. for long term storage.
All steps were carried out under sterile conditions. 80-100% confluent HepG2 were plated into Corning™ Costar™ 96-Well Flat-Bottom Microplates (Fisher Scientific) by adding 200 μL of a homogenous dispersion of cells at a concentration of 0.6×10^5 cells mL^−1 before incubation at 37° C., 5% CO2 overnight. […] The plates were incubated at 37° C., 5% CO2 for 44 hrs in a Sanyo MCO-18M incubator. alamarBlue® (ThermoFisher scientific) or resazurin solution (10 μL) was added to each well and incubated for a further 4 hrs at 37° C., 5% CO2. Cell-viability was determined using a BioTek™ FLx800 microplate reader with Gen5® 1.08 data analysis software (BioTek) by monitoring fluorescence emission (Nex 560/hem 590 nm). Dose response curves were fitted using sigmoidal regression analysis (GraphPad Prism 8 software) and used to calculate EC50 values.

S. aureus (FDA209P) = test: Antibacterial MIC/growth assay, S. aureus; format: cell-based; conditions: 16 hours at 37° C., absorbance 600 nm
Method: DMSO was used as a solvent control at a maximum final concentration of 10% (a greater percentage than would be achieved using the compounds at the concentrations in question). Plates were incubated at 37° C. with shaking for 16 hours before measuring absorbance at 600 nm. These values were then used to calculate percentage growth at each dilution of compound in comparison to growth in the absence of compound. The following day, the contents of each well were resuspended using a multichannel pipette, and 5 μl from each well was then applied to LB agar plates. These were incubated at 30° C. in a stationary incubator for 16 hours before imaging.

[3] = parameters: species or system swiss albino mice; conditions: mouse, in vivo
Method: DMPK studies were performed by GVK BIO Sciences Pvt Ltd Hyderabad, India, in collaboration with LifeArc. Three swiss albino mice per experiment were inoculated (IP or oral) with compound at 10 mg kg^−1 in 10% DMSO (2 mg mL^−1) on day 1. A small blood sample (50 μL) was taken after 15 minutes, 30 minutes, 1 hr, 2 hr, 4 hr, 6 hr, 8 hr and 24 hr. Proteins were precipitated in acetonitrile and the supernatant was diluted in 1:1 methanol:water and subject to LCMS analysis. The concentration of compound in the blood was determined by comparing the peak area to a calibration curve.

[4] = kinetic solubility in FESSIF, 2 hrs at RT
[5] = kinetic solubility in PBS, 2 hrs at RT

| Compound | EC50 [1] | EC50 (L. major promastigotes) | EC50 [2] | Solubility (PBS)/μM (Kinetic solubility; [5]) | also measured |
| --- | --- | --- | --- | --- | --- |
| CNC(=O)C1CCCC1NC(=O)c1ccc([N+](=O)[O-])s1 (racemic) [Compound 25, N—[±2′-(methylcarbamoyl)cyclopentyl]-5′-nitrothiophene-2-carboxamide] | 3.4 µM | 20 µM | 8 µM |  |  |
| CNC(=O)c1ccsc1NC(=O)c1ccc([N+](=O)[O-])o1 [Compound 17, N-[3-(methylcarbamoyl)thiophen-2-yl]-5′-nitrofuran-2′-carboxamide] |  |  |  |  | EC50 ([1]; Leishmania donovani): 0.2 µM; EC50 (L. major promastigotes; Leishmania major, 48 h): 0.37 µM; EC50 ([2]; Leishmania amazonensis, 48 h): 0.33 µM |
| NC(=O)c1ccccc1NC(=O)c1ccc([N+](=O)[O-])s1 [Compound 27, N-(2-carbamoylphenyl)-5′-nitrothiophene-2′-carboxamide] |  | 0.47 µM | 0.079 µM |  | Solubility (FESSIF)/μM (Kinetic solubility): 90 µM (≈ 26.2 µg/mL); Solubility (PBS)/μM (Kinetic solubility): <2.5 µM |
| CNC(=O)c1ccccc1NC(=O)c1ccc([N+](=O)[O-])s1 [Compound 28, N-[2-(methylcarbamoyl)phenyl]-5′-nitrothiophene-2′-carboxamide] | 0.012 µM | 0.65 µM | 0.052 µM | 8.5 µM (≈ 2.6 µg/mL) | CC50 (HepG2 cells): 5 µM; Solubility (FESSIF)/μM (Kinetic solubility; [4]): 143 µM (≈ 43.7 µg/mL) |
| O=C(Nc1ccccc1)c1ccc([N+](=O)[O-])s1 [Compound 33, 5′-nitro-N-phenylthiophene-2′-carboxamide] | 0.93 µM | 4.06 µM | 3.6 µM | 15 µM (≈ 3.72 µg/mL) |  |
| CNC(=O)c1ccc(OC)cc1NC(=O)c1ccc([N+](=O)[O-])s1 [Compound 43, N-[5-methoxy-2-(methylcarbamoyl)phenyl]-5′-nitrothiophene-2′-carboxamide] | 0.006 µM | 0.33 µM | 0.021 µM | <7.4 µM | CC50 (HepG2 cells): > 100 µM; Solubility (FESSIF)/μM (Kinetic solubility; [4]): 38 µM (≈ 12.7 µg/mL) |
| CNC(=O)c1ccc(C)cc1NC(=O)c1ccc([N+](=O)[O-])s1 [Compound 44, N-[5-methyl-2-(methylcarbamoyl)phenyl]-5′-nitrothiophene-2′-carboxamide] | 0.005 µM | 0.34 µM | 0.027 µM | <7.4 µM | CC50 (HepG2 cells): 31 µM; Solubility (FESSIF)/μM (Kinetic solubility; [4]): 65 µM (≈ 20.8 µg/mL) |
| CNC(=O)c1ccc(C(F)(F)F)cc1NC(=O)c1ccc([N+](=O)[O-])s1 [Compound 45, N-[2-(methylcarbamoyl)-5-(trifluoromethyl)phenyl]-5′-nitrothiophene-2′-carboxamide] |  | 1.84 µM | 0.24 µM | 6.5 µM (≈ 2.43 µg/mL) | CC50 (HepG2 cells): 13 µM; Solubility (FESSIF)/μM (Kinetic solubility; [4]): 250 µM (≈ 93.3 µg/mL) |
| CNC(=O)c1ccc(Br)cc1NC(=O)c1ccc([N+](=O)[O-])s1 [Compound 46, N-[5-bromo2-(methylcarbamoyl)phenyl]-5′-nitrothiophene-2′-carboxamide] | 0.12 µM | 0.57 µM | 0.048 µM | <2.5 µM | CC50 (HepG2 cells): 7.2 µM; Solubility (FESSIF)/μM (Kinetic solubility; [4]): 210 µM (≈ 80.7 µg/mL) |
| CNC(=O)c1ccsc1/N=C/c1ccc([N+](=O)[O-])s1 [Compound 50, N-methyl-2-[(E)-[(5′-nitrothiophen-2′-yl)methylidene]amino]thiophene-3-carboxamide] |  |  |  |  | EC50 (L. major promastigotes; Leishmania major, 48 h): 0.86 ± 0.07 µM; solubility at 2 h (Kinetic solubility; PBS, aqueous buffer): 101 ± 6 µM (≈ 29.8 µg/mL) |
| CNC(=O)c1ccc(OCCOCCOC)cc1NC(=O)c1ccc([N+](=O)[O-])s1 [Compound 51, N-{5-[2″-(2″-methoxyethoxy)ethoxy]-2-(methylcarbamoyl)phenyl}-5′-nitrothiophene-2′-carboxamide] |  |  |  |  | EC50 ([1]; Leishmania donovani): 0.19 µM; EC50 (L. major promastigotes; Leishmania major, 48 h): 0.32 µM; EC50 ([2]; Leishmania amazonensis, 48 h): 0.22 µM; solubility at 2 h (Kinetic solubility; FASSGF, fassgf or other biorelevant): 11 µM (≈ 4.66 µg/mL); solubility at 2 h (Kinetic solubility; FASSIF): < 7.4 µM; solubility at 2 h (Kinetic solubility; FESSIF): 7.26 µM (≈ 3.07 µg/mL); solubility at 2 h (Kinetic solubility; PBS, aqueous buffer): 2.27 µM (≈ 0.961 µg/mL) |
| CNC(=O)c1ccc(OCCC2CCOCC2)cc1NC(=O)c1ccc([N+](=O)[O-])s1 [Compound 54, N-[2-(methylcarbamoyl)-5-[2″-(oxan-4″-yl)ethoxy]phenyl]-5′-nitrothiophene-2′-carboxamide] |  |  |  |  | EC50 ([1]; Leishmania donovani): 0.34 µM; EC50 (L. major promastigotes; Leishmania major, 48 h): 0.33 µM; EC50 ([2]; Leishmania amazonensis, 48 h): 0.46 µM; inhibition of growth of S. aureus (S. aureus (FDA209P)): effective at inhibiting the bacteria at low concentrations; solubility at 2 h (Kinetic solubility; FESSIF): 47 µM (≈ 20.4 µg/mL); solubility at 2 h (Kinetic solubility; PBS, aqueous buffer): 3.7 µM (≈ 1.6 µg/mL) |
| CNC(=O)c1ccc(C(C)(C)C)cc1NC(=O)c1ccc([N+](=O)[O-])s1 [Compound 55, N-[5-tert-butyl-2-(methylcarbamoyl)phenyl]-5′-nitrothiophene-2′-carboxamide] |  |  |  |  | EC50 ([1]; Leishmania donovani): 1.3 µM; EC50 (L. major promastigotes; Leishmania major, 48 h): 1.35 µM; EC50 ([2]; Leishmania amazonensis, 48 h): 2.5 µM; solubility at 2 h (Kinetic solubility; FESSIF): 260 µM (≈ 94 µg/mL); solubility at 2 h (Kinetic solubility; PBS, aqueous buffer): < 2.5 µM |
| Ethyl 2-(5′-nitrothiophene-2′-amido)thiophene-3-carboxylate [Compound 4] |  | 0.93 µM | 1.85 µM |  | pharmacokinetic profile [3]: poor pharmacokinetic profiles |
| Methyl 2-(5′-nitrothiophene-2′-amido)thiophene-3-carboxylate [Compound 3] | 0.3 µM | 0.59 µM | 0.91 µM |  | pharmacokinetic profile [3]: poor pharmacokinetic profiles |
| N-(3-carbamoylthiophen-2-yl)-5′-nitrothiophene-2′-carboxamide [Compound 1] | 0.004 µM | 0.52 µM | 0.042 µM |  | pharmacokinetic profile [3]: poor pharmacokinetic profiles |
| N-(3-cyanothiophen-2-yl)-5′-nitrothiophene-2′-carboxamide [Compound 5] | 1.12 µM | 1.1 µM | 2.1 µM |  |  |
| N-methyl-2-(5′-nitrothiophene-2′-amido)thiophene-3-carboxamide [Compound 2] | 0.033 µM | 0.99 µM | 0.29 µM |  | pharmacokinetic profile [3]: poor pharmacokinetic profiles |
